Assay results published in PMC5673977, “Transport Deficiency Is the Molecular Basis of Candida albicans Resistance to Antifungal Oligopeptides” (Frontiers in Microbiology, 2017).
Values after ≈ are worked out from the molar mass of the structure shown. Like-named read-outs stand apart in the source and are kept apart here. Where a SMILES comes first, the peptide text is derived from it.

Assays:
Type in all cases: cell-based, Candida albicans
[1] = system: C. albicans SC5314; experiment: Initial peptide uptake rate; settings: SC 5314; cells grown in YNB-SG; 50 mM potassium phosphate buffer (pH 5.0 or 6.5) + 1% glucose, 30°C, 100 μM peptide, residual peptide by TNBS A420, slope 0- to 10-min
Experimental: (§1) Yeast cells grown exponentially in the YNB-SG medium were harvested by centrifugation (3000 ×g, 5 min), washed with 50 mM potassium phosphate buffer (pH 5.0 or 6.5), and suspended in the same buffer containing 1% glucose, to a final cell density corresponding to A660 ≅ 1.0. The cell suspension was incubated at 30°C. After 10 min, an oligopeptide solution was added, to give a final concentration of 100 μM. At that moment and at 5 min intervals thereafter, 2 mL samples of the cell suspension were withdrawn, immediately filtered through the Whatman GF/A filters and the filtrates were used to determine the residual peptide concentration. Then, the 1 mL portions of the filtrates were taken and combined with 1.25 mL aliquots of a solution containing 4% Na2B4O7 × 10 H2O and 0.8 mg mL^-1 of 2,4,6-trinitrobenzenesulfonate. The reaction was carried out at 37°C for 30 min. The A420 values were measured and the peptide concentration was read from the appropriate standard curve. Data were plotted as nanomoles of an oligopeptide, taken up by 1 mg (dry weight) of cells versus time. The initial uptake velocities were determined from the slopes of the linear part of the curves, in the 0- to 10-min region.

[2] = system: C. albicans opt1Δ; experiment: Initial peptide uptake rate; settings: 50 mM potassium phosphate buffer (pH 5.0 or 6.5) + 1% glucose, 30°C, 100 μM peptide, TNBS A420, slope 0- to 10-min
Experimental: as §1

[3] = system: C. albicans opt1–opt5Δ ptr2Δ ptr22Δ; experiment: Initial peptide uptake rate; settings: 50 mM potassium phosphate buffer (pH 5.0 or 6.5) + 1% glucose, 30°C, 100 μM peptide, TNBS A420, slope 0- to 10-min
Experimental: as §1

[4] = system: C. albicans opt1–opt5Δ; experiment: Initial peptide uptake rate; settings: 50 mM potassium phosphate buffer (pH 5.0 or 6.5) + 1% glucose, 30°C, 100 μM peptide, TNBS A420, slope 0- to 10-min
Experimental: as §1

[5] = system: C. albicans opt2Δ opt3Δ; experiment: Initial peptide uptake rate; settings: 50 mM potassium phosphate buffer (pH 5.0 or 6.5) + 1% glucose, 30°C, 100 μM peptide, TNBS A420, slope 0- to 10-min
Experimental: as §1

[6] = system: C. albicans opt4Δ; experiment: Initial peptide uptake rate; settings: 50 mM potassium phosphate buffer (pH 5.0 or 6.5) + 1% glucose, 30°C, 100 μM peptide, TNBS A420, slope 0- to 10-min
Experimental: as §1

[7] = system: C. albicans opt5Δ; experiment: Initial peptide uptake rate; settings: 50 mM potassium phosphate buffer (pH 5.0 or 6.5) + 1% glucose, 30°C, 100 μM peptide, TNBS A420, slope 0- to 10-min
Experimental: as §1

[8] = system: C. albicans ptr2Δ ptr22Δ; experiment: Initial peptide uptake rate; settings: 50 mM potassium phosphate buffer (pH 5.0 or 6.5) + 1% glucose, 30°C, 100 μM peptide, TNBS A420, slope 0- to 10-min
Experimental: as §1

[9] = system: C. albicans isolates NF1-3 and LNF1-3; experiment: Initial peptide uptake rate by isolates resistant to F2/F3; settings: all six isolates NF1-3, LNF1-3; Figure 4
Experimental: as §1
It is therefore clear that the diminished sensitivity of all six isolates to F2 and F3 was due to the reduced uptake, most likely by permease(s) of the PTR system.

[10] = system: C. albicans SC5314; settings: SC 5314
Experimental: (§2) Strains were grown at 30°C in YPD medium (1% yeast extract, 2% peptone, and 2% glucose) and stored on YPD plates containing 2% agar. Susceptibility testing was performed in YPD and other three media: (a) RPMI-1640 w/o sodium bicarbonate, with L-glutamine + 2% glucose + 3.45% MOPS, pH adjusted to 7.0; (b) YNB-AS—Yeast Nitrogen Base w/o amino acids (contains ammonium sulfate 5 g L^-1) + 2% glucose; (c) YNB-SG—Yeast Nitrogen Base w/o amino acids and ammonium sulfate + 2% glucose + 0.2 g L^-1 sodium glutamate. In their solid version, used for the mutant generation and isolation, YNB-AS and YNB-SG contained 2% agar.
(§3) The in vitro growth inhibitory activity of antifungals was quantified by determination of minimal inhibitory concentration (MIC) values by the serial twofold dilution method, using the 96-well microtiter plates in three media: buffered RPMI-1640, YNB-AS, and YNB-SG. Conditions of the RPMI-1640-based assay were the same as outlined in the CLSI recommendations ([Clinical Laboratory Standards Institute, 2008]), except for the end-point readout that was done by spectrophotometric determination of cell density at 531 nm. Turbidity in individual wells was measured with a microplate reader (Victor^3; Perkin Elmer). MIC was defined as the lowest drug concentration that gave at least an 80% decrease in turbidity, relative to that of the drug-free growth control.
(§4) The 96-well microtiter plates were also used for determination of in vitro growth inhibitory activity in YPD and YNB-based media. Individual wells were inoculated with 5 × 10^3 cfu mL^-1 of C. albicans cells from the overnight culture in YPD medium. The inoculated plates were incubated 37°C for 24 h and then turbidity was measured with a microplate reader at 531 nm, as described above for the RPMI-1640-based assay.

[11] = system: C. albicans opt1Δ; settings: turbidity 531 nm, at least 80% decrease
Experimental: as §2, §3, §4

[12] = system: C. albicans opt1–opt5Δ ptr2Δ ptr22Δ; settings: turbidity 531 nm, at least 80% decrease
Experimental: as §2, §3, §4

[13] = system: C. albicans opt1–opt5Δ; settings: turbidity 531 nm, at least 80% decrease
Experimental: as §2, §3, §4

[14] = system: C. albicans opt2Δ opt3Δ; settings: turbidity 531 nm, at least 80% decrease
Experimental: as §2, §3, §4

[15] = system: C. albicans opt4Δ; settings: turbidity 531 nm, at least 80% decrease
Experimental: as §2, §3, §4

[16] = system: C. albicans opt5Δ; settings: turbidity 531 nm, at least 80% decrease
Experimental: as §2, §3, §4

[17] = system: C. albicans ptr2Δ ptr22Δ; settings: turbidity 531 nm, at least 80% decrease
Experimental: as §2, §3, §4

[18] = RPMI-1640 medium, MOPS pH 7.0, CLSI conditions

CSCC[C@H](NC(=O)[C@@H](NC(=O)[C@@H]1CCCN1C(=O)[C@H](CC(C)C)NC(=O)[C@@H](N)CCCCN)C(C)C)C(=O)O [Peptide P5, Lys-Leu-Pro-Val-Met, reference compound] (H-KLPVM-OH)
Uptake rate ± SD [1]: 2.66 ± 0.19 nmol min^-1 (mg dry weight)^-1 | Uptake rate ± SD [2]: 2.01 ± 0.16 nmol min^-1 (mg dry weight)^-1 | Uptake rate ± SD [3]: 0.15 ± 0.04 nmol min^-1 (mg dry weight)^-1 | Uptake rate ± SD [4]: 0.39 ± 0.07 nmol min^-1 (mg dry weight)^-1 | Uptake rate ± SD [5]: 0.52 ± 0.08 nmol min^-1 (mg dry weight)^-1 | Uptake rate ± SD [6]: 1.95 ± 0.13 nmol min^-1 (mg dry weight)^-1 | Uptake rate ± SD [7]: 1.82 ± 0.11 nmol min^-1 (mg dry weight)^-1 | Uptake rate ± SD [8]: 2.56 ± 0.18 nmol min^-1 (mg dry weight)^-1

Ala-Ala-Ala-Ala [(Ala)4, model alanyl oligopeptide, reference compound]
Uptake rate ± SD [1]: 3.75 ± 0.19 nmol min^-1 (mg dry weight)^-1 | Uptake rate ± SD [2]: 0.79 ± 0.09 nmol min^-1 (mg dry weight)^-1 | Uptake rate ± SD [3]: <0.1 nmol min^-1 (mg dry weight)^-1 | Uptake rate ± SD [4]: 0.12 ± 0.02 nmol min^-1 (mg dry weight)^-1 | Uptake rate ± SD [5]: 1.93 ± 0.15 nmol min^-1 (mg dry weight)^-1 | Uptake rate ± SD [6]: 1.72 ± 0.11 nmol min^-1 (mg dry weight)^-1 | Uptake rate ± SD [7]: 1.55 ± 0.11 nmol min^-1 (mg dry weight)^-1 | Uptake rate ± SD [8]: 2.72 ± 0.16 nmol min^-1 (mg dry weight)^-1 | Initial uptake rate relative to wild type SC5314 cells [9]: nearly the same or even somewhat higher

CC(C)[C@H](NC(=O)[C@H](Cc1c[nH]c2ccccc12)NC(=O)[C@H](Cc1ccccc1)NC(=O)[C@@H](NC(=O)[C@@H](NC(=O)[C@H](CCCCN)NC(=O)[C@@H](N)CCCCN)C(C)C)C(C)C)C(=O)N[C@@H](CCCCN)C(=O)N[C@@H](Cc1ccccc1)C(=O)N[C@@H](CCCCN)C(=O)O [Peptide P10, Lys-Lys-Val-Val-Phe-Trp-Val-Lys-Phe-Lys] (H-KKVVFWVKFK-OH)
MIC ([10]; RPMI-1640 medium, MOPS pH 7.0, CLSI conditions, turbidity 531 nm, at least 80% decrease): 64 µg/mL (≈ 48.9 µM) | MIC ([10]; YNB + L-Gln (0.3 g L^-1) pH 5.0): 64 µg/mL | MIC ([10]; YNB + L-Gln (0.3 g L^-1) pH 7.0): 64 µg/mL | MIC ([10]; YNB + amino acid mixture (composition as in RPMI-1640)): 64 µg/mL | MIC ([10]; YNB-AS medium, 5 × 10^3 cfu mL^-1, 37°C, 24 h, turbidity 531 nm, at least 80% decrease): 64 µg/mL (≈ 48.9 µM) | MIC ([10]; YNB-SG medium, 5 × 10^3 cfu mL^-1, 37°C, 24 h, turbidity 531 nm, at least 80% decrease): 64 µg/mL (≈ 48.9 µM) | MIC ([10]; growth medium YNB-SG (Table 6)): 64 µg/mL (≈ 48.9 µM) | MIC [11, 18]: 64 µg/mL (≈ 48.9 µM) | MIC ([11]; YNB-AS medium, 37°C, 24 h): 64 µg/mL (≈ 48.9 µM) | MIC ([11]; YNB-SG medium, 37°C, 24 h): 64 µg/mL (≈ 48.9 µM) | MIC [12, 18]: 64 µg/mL (≈ 48.9 µM) | MIC ([12]; YNB-AS medium, 37°C, 24 h): 64 µg/mL (≈ 48.9 µM) | MIC ([12]; YNB-SG medium, 37°C, 24 h): 64 µg/mL (≈ 48.9 µM) | MIC [13, 18]: 64 µg/mL (≈ 48.9 µM) | MIC ([13]; YNB-AS medium, 37°C, 24 h): 64 µg/mL (≈ 48.9 µM) | MIC ([13]; YNB-SG medium, 37°C, 24 h): 64 µg/mL (≈ 48.9 µM) | MIC [14, 18]: 64 µg/mL (≈ 48.9 µM) | MIC ([14]; YNB-AS medium, 37°C, 24 h): 64 µg/mL (≈ 48.9 µM) | MIC ([14]; YNB-SG medium, 37°C, 24 h): 64 µg/mL (≈ 48.9 µM) | MIC [15, 18]: 64 µg/mL (≈ 48.9 µM) | MIC ([15]; YNB-AS medium, 37°C, 24 h): 64 µg/mL (≈ 48.9 µM) | MIC ([15]; YNB-SG medium, 37°C, 24 h): 64 µg/mL (≈ 48.9 µM) | MIC [16, 18]: 64 µg/mL (≈ 48.9 µM) | MIC ([16]; YNB-AS medium, 37°C, 24 h): 64 µg/mL (≈ 48.9 µM) | MIC ([16]; YNB-SG medium, 37°C, 24 h): 64 µg/mL (≈ 48.9 µM) | MIC [17, 18]: 64 µg/mL (≈ 48.9 µM) | MIC ([17]; YNB-AS medium, 37°C, 24 h): 64 µg/mL (≈ 48.9 µM) | MIC ([17]; YNB-SG medium, 37°C, 24 h): 64 µg/mL (≈ 48.9 µM) | Uptake rate ± SD [1]: <0.1 nmol min^-1 (mg dry weight)^-1 | Uptake rate ± SD [2]: <0.1 nmol min^-1 (mg dry weight)^-1 | Uptake rate ± SD [3]: <0.1 nmol min^-1 (mg dry weight)^-1 | Uptake rate ± SD [4]: <0.1 nmol min^-1 (mg dry weight)^-1 | Uptake rate ± SD [5]: <0.1 nmol min^-1 (mg dry weight)^-1 | Uptake rate ± SD [6]: <0.1 nmol min^-1 (mg dry weight)^-1 | Uptake rate ± SD [7]: <0.1 nmol min^-1 (mg dry weight)^-1 | Uptake rate ± SD [8]: <0.1 nmol min^-1 (mg dry weight)^-1
